Reference: ChEMBL document CHEMBL3862012, “Methylene versus carbonyl bridge in the structure of new tubulin polymerization inhibitors with tricyclic A-rings” (Bioorg Med Chem, 2016)

Columns and labels:
[1] = Cytotoxicity against human NCI-H522 cells assessed as growth inhibition at 10 uM after 48 hrs by SRB assay relative to control; assay type: functional; settings: NCI-H522, 48 h, read-out: GI
[2] = Cytotoxicity against human U251 cells assessed as growth inhibition at 10 uM after 48 hrs by SRB assay relative to control; assay type: functional; settings: U-251, 48 h, read-out: GI
[3] = Cytotoxicity against human MOLT4 cells assessed as growth inhibition at 10 uM after 48 hrs by SRB assay relative to control; assay type: functional; settings: MOLT-4, 48 h, read-out: GI
[4] = Cytotoxicity against human OVCAR5 cells assessed as growth inhibition at 10 uM after 48 hrs by SRB assay relative to control; assay type: functional; settings: OVCAR-5, 48 h, read-out: GI
[5] = Cytotoxicity against human HCT15 cells assessed as growth inhibition at 10 uM after 48 hrs by SRB assay relative to control; assay type: functional; settings: HCT-15, 48 h, read-out: GI
[6] = Cytotoxicity against human UO31 cells assessed as growth inhibition at 10 uM after 48 hrs by SRB assay relative to control; assay type: functional; settings: UO-31, 48 h, read-out: GI
[7] = Cytotoxicity against human NCI-H460 cells assessed as growth inhibition at 10 uM after 48 hrs by SRB assay relative to control; assay type: functional; settings: NCI-H460, 48 h, read-out: GI
[8] = Cytotoxicity against human UACC257 cells assessed as growth inhibition at 10 uM after 48 hrs by SRB assay relative to control; assay type: functional; settings: UACC-257, 48 h, read-out: GI
[9] = Cytotoxicity against human HCT116 cells assessed as growth inhibition at 10 uM after 48 hrs by SRB assay relative to control; assay type: functional; settings: HCT-116, 48 h, read-out: GI
[10] = Cytotoxicity against human COLO205 cells assessed as growth inhibition at 10 uM after 48 hrs by SRB assay relative to control; assay type: functional; settings: COLO 205, 48 h, read-out: GI
[11] = Cytotoxicity against human MDA-MB-468 cells assessed as growth inhibition at 10 uM after 48 hrs by SRB assay relative to control; assay type: functional; settings: MDA-MB-468, 48 h, read-out: GI
[12] = Cytotoxicity against human EKVX cells assessed as growth inhibition at 10 uM after 48 hrs by SRB assay relative to control; assay type: functional; settings: read-out: GI
[13] = Cytotoxicity against human KM12 cells assessed as growth inhibition at 10 uM after 48 hrs by SRB assay relative to control; assay type: functional; settings: KM12, 48 h, read-out: GI
[14] = Cytotoxicity against human CCRF-CEM cells assessed as growth inhibition at 10 uM after 48 hrs by SRB assay relative to control; assay type: functional; settings: read-out: GI
[15] = Cytotoxicity against human PC3 cells assessed as growth inhibition at 10 uM after 48 hrs by SRB assay relative to control; assay type: functional; settings: PC-3, 48 h, read-out: GI
[16] = Cytotoxicity against human T47D cells assessed as growth inhibition at 10 uM after 48 hrs by SRB assay relative to control; assay type: functional; settings: read-out: GI
[17] = Cytotoxicity against human MCF7 cells assessed as growth inhibition at 10 uM after 48 hrs by SRB assay relative to control; assay type: functional; settings: MCF7, 48 h, read-out: GI
[18] = Cytotoxicity against human M14 cells assessed as growth inhibition at 10 uM after 48 hrs by SRB assay relative to control; assay type: functional; settings: M14, 48 h, read-out: GI
[19] = Cytotoxicity against human SNB19 cells assessed as growth inhibition at 10 uM after 48 hrs by SRB assay relative to control; assay type: functional; settings: SNB-19, 48 h, read-out: GI
[20] = Cytotoxicity against human A549 cells assessed as growth inhibition at 10 uM after 48 hrs by SRB assay relative to control; assay type: functional; settings: A549, 48 h, read-out: GI
[21] = Cytotoxicity against human 786-0 cells assessed as growth inhibition at 10 uM after 48 hrs by SRB assay relative to control; assay type: functional; settings: 786-0, 48 h, read-out: GI
[22] = Cytotoxicity against human OVCAR4 cells assessed as growth inhibition at 10 uM after 48 hrs by SRB assay relative to control; assay type: functional; settings: OVCAR-4, 48 h, read-out: GI
[23] = Cytotoxicity against human SF268 cells assessed as growth inhibition at 10 uM after 48 hrs by SRB assay relative to control; assay type: functional; settings: SF-268, 48 h, read-out: GI
[24] = Cytotoxicity against human MDA-MB-435 cells assessed as growth inhibition at 10 uM after 48 hrs by SRB assay relative to control; assay type: functional; settings: MDA-MB-435, 48 h, read-out: GI
[25] = Cytotoxicity against human SW620 cells assessed as growth inhibition at 10 uM after 48 hrs by SRB assay relative to control; assay type: functional; settings: SW-620, 48 h, read-out: GI
[26] = Cytotoxicity against human Hs 578T cells assessed as growth inhibition at 10 uM after 48 hrs by SRB assay relative to control; assay type: functional; settings: read-out: GI
[27] = Cytotoxicity against human SK-MEL-2 cells assessed as growth inhibition at 10 uM after 48 hrs by SRB assay relative to control; assay type: functional; settings: SK-MEL-2, 48 h, read-out: GI
[28] = Cytotoxicity against human ACHN cells assessed as growth inhibition at 10 uM after 48 hrs by SRB assay relative to control; assay type: functional; settings: read-out: GI
[29] = Cytotoxicity against human NCI-H322M cells assessed as growth inhibition at 10 uM after 48 hrs by SRB assay relative to control; assay type: functional; settings: read-out: GI
[30] = Cytotoxicity against human HL-60(TB) cells assessed as growth inhibition at 10 uM after 48 hrs by SRB assay relative to control; assay type: functional; settings: HL-60, 48 h, read-out: GI
[31] = Cytotoxicity against human NCI-H23 cells assessed as growth inhibition at 10 uM after 48 hrs by SRB assay relative to control; assay type: functional; settings: NCI-H23, 48 h, read-out: GI
[32] = Cytotoxicity against human RXF393 cells assessed as growth inhibition at 10 uM after 48 hrs by SRB assay relative to control; assay type: functional; settings: RXF 393, 48 h, read-out: GI
Ovis aries = organism: Ovis aries; assay: Inhibition of sheep brain tubulin polymerization at 100 uM by DAPI staining-based fluorimetric method relative to control
[33] = Cytotoxicity against human HT-29 cells assessed as growth inhibition at 10 uM after 48 hrs by SRB assay relative to control; assay type: functional; settings: HT-29, 48 h, read-out: GI
[34] = Cytotoxicity against human RPMI8226 cells assessed as growth inhibition at 10 uM after 48 hrs by SRB assay relative to control; assay type: functional; settings: RPMI-8226, 48 h, read-out: GI
[35] = Cytotoxicity against human MALME-3M cells assessed as growth inhibition at 10 uM after 48 hrs by SRB assay relative to control; assay type: functional; settings: read-out: GI
[36] = Cytotoxicity against human NCI-ADR-RES cells assessed as growth inhibition at 10 uM after 48 hrs by SRB assay relative to control; assay type: functional; settings: read-out: GI
[37] = Cytotoxicity against human OVCAR3 cells assessed as growth inhibition at 10 uM after 48 hrs by SRB assay relative to control; assay type: functional; settings: OVCAR-3, 48 h, read-out: GI

**Q.** For `COc1ccc(CN2c3ccccc3Oc3ccccc32)cc1O`, which inhibition of growth at 10 µM [1] is on record?
**A.** 100%

**Q.** And the inhibition of growth at 10 µM [2]?
**A.** 76%

**Q.** What about the inhibition of growth at 10 µM [3] of the same molecule?
**A.** 75%

**Q.** What about the inhibition of growth at 10 µM [4] of the same molecule?
**A.** 9%

**Q.** What about the inhibition of growth at 10 µM [5] of the same molecule?
**A.** 72%

**Q.** And the inhibition of growth at 10 µM [6]?
**A.** 68%

**Q.** What about the inhibition of growth at 10 µM [7] of the same molecule?
**A.** 87%

**Q.** And the inhibition of growth at 10 µM [8]?
**A.** 61%

**Q.** And the inhibition of growth at 10 µM [9]?
**A.** 86%

**Q.** And the inhibition of growth at 10 µM [10]?
**A.** 9%

**Q.** What about the inhibition of growth at 10 µM [11] of the same molecule?
**A.** 93%

**Q.** What about the inhibition of growth at 10 µM [12] of the same molecule?
**A.** 65%

**Q.** What about the inhibition of growth at 10 µM [13] of the same molecule?
**A.** 79%

**Q.** And the inhibition of growth at 10 µM [14]?
**A.** 88%

**Q.** And the inhibition of growth at 10 µM [15]?
**A.** 69%

**Q.** And the inhibition of growth at 10 µM [16]?
**A.** 69%

**Q.** And the inhibition of growth at 10 µM [17]?
**A.** 73%

**Q.** What about the inhibition of growth at 10 µM [18] of the same molecule?
**A.** 82%

**Q.** And the inhibition of growth at 10 µM [19]?
**A.** 65%

**Q.** What about the inhibition of growth at 10 µM [20] of the same molecule?
**A.** 62%

**Q.** What about the inhibition of growth at 10 µM [21] of the same molecule?
**A.** 57%

**Q.** What about the inhibition of growth at 10 µM [22] of the same molecule?
**A.** 45%

**Q.** What about the inhibition of growth at 10 µM [23] of the same molecule?
**A.** 43%

**Q.** What about the inhibition of growth at 10 µM [24] of the same molecule?
**A.** 91%

**Q.** And the inhibition of growth at 10 µM [25]?
**A.** 73%

**Q.** And the inhibition of growth at 10 µM [26]?
**A.** 69%

**Q.** What about the inhibition of growth at 10 µM [27] of the same molecule?
**A.** 100%

**Q.** And the inhibition of growth at 10 µM [28]?
**A.** 64%

**Q.** And the inhibition of growth at 10 µM [29]?
**A.** 44%

**Q.** What about the inhibition of growth at 10 µM [30] of the same molecule?
**A.** 84%

**Q.** What about the inhibition of growth at 10 µM [31] of the same molecule?
**A.** 66%

**Q.** And the inhibition of growth at 10 µM [32]?
**A.** 50%

**Q.** What about the inhibition (Ovis aries) of the same molecule?
**A.** 4%

**Q.** What about the inhibition of growth at 10 µM [33] of the same molecule?
**A.** 17%

**Q.** And the inhibition of growth at 10 µM [34]?
**A.** 86%

**Q.** And the inhibition of growth at 10 µM [35]?
**A.** 55%

**Q.** And the inhibition of growth at 10 µM [36]?
**A.** 75%

**Q.** And the inhibition of growth at 10 µM [37]?
**A.** 81%
